“Also recorded” adds a separate entry of the source. Where two headings read alike, the source gives them in different places.
Legend:
[1] = mammals, several months after the treatment, cited from earlier work
[2] = cited from earlier work
[3] = test system: intrinsic brain tumors; details: nine patients, ICG as intravenous contrast-enhancement agent; cited from earlier work
[4] = Animal studies: ICG injected into the penis to image nerves, kidney fluorescence observed; format: in vivo; details: animals
Excerpt: The present invention stems in part from studies we took in using the near infrared fluorescent dye indocyanine green (“ICG”) to image cavernous nerves of the penis. When abdominal incisions were made, we noted that the kidneys were fluorescent for hours to days after ICG administration, even though ICG is cleared quickly from the circulation. Because we are urologists, we are aware that kidney tumors tend to be hypervascular and develop rich vascular beds that are not uniform. We formed the hypothesis that the vascular beds would tend to impede the flow of ICG out of the tumor. We realized that any difference in admission or retention of fluorescent dye between normal and tumor tissue would result in different amounts of fluorescence, and that these differences could be exploited to detect the presence or absence of tumors in areas of the kidney. We hypothesized that kidney tumors would tend to retain ICG more than areas of the kidney with normal vasculature, and that areas within the kidney that fluoresced when exposed to light of an appropriate excitation frequency would identify the presence of tumors.
Typically, the dye is administered sufficiently before the intended surgery to permit the kidney to take up the dye, but not so long before the surgery that the dye has been cleared by the liver or otherwise eliminated from the body. […]

[5] = Clinical trial: safety of intravenous ICG in nephrectomy patients; format: in vivo, human; details: ten patients, ICG intravenously
Protocol: Following Institutional Review Board approval, a clinical trial of the invention was conducted. Ten patients presenting for radical or partial nephrectomy were enrolled in the trial. After the kidney was mobilized (typically, only one of the patient's kidneys is involved in such operations), ˜10 cc (2.5 mg/ml) of ICG was injected intravenously. Shortly after injection, near infrared fluorescence (NIRF) imaging was conducted and recorded using a LUNA™ NIRF system (Novadaq Technologies Inc, Mississauga, Canada).
Microscopy and histological studies were performed on excised tissue. […] Histological examination using hematoxylin and eosin staining confirmed the location of differential ICG fluorescence in tumor and normal renal tissue. All surgical margins were negative: 4 mm (the range of the margin was from 2-10 mm).

[6] = test system: renal cortical tumors and cysts; test: Clinical trial: intraoperative near infrared fluorescence (NIRF) imaging of the kidney after intravenous ICG in radical or partial nephrectomy patients; format: in vivo, human

kidney fluorescence 18 hours after injection ([4]; ICG injected into the penis, 18 hours after injection)	duration of kidney fluorescence after ICG administration ([4]; seen at abdominal incision)	Structure (SMILES)	neuronal toxicity [1]	neuronal toxicity ([1]; listed as fluorogold)	metabolism ([2]; in the body)	excretion ([2]; in vivo)	reabsorption from the intestine / enterohepatic recirculation ([2]; in vivo)	distribution after intravenous injection ([2]; with normal vascular permeability)	dynamic optical signals of brain tissue and tumors [3]	optical imaging of resection margins in malignant tumors [3]	effects of the dye on post-operative hepatorenal function [5]	hypersensitivity reactions [5]	surgical margins ([6]; partial nephrectomy under NIRF imaging)	fluorescence of complex / hemorrhagic cysts under NIRF imaging ([6]; patients, ICG intravenously)	fluorescence of normal kidney tissue under NIRF imaging ([6]; patients, ICG intravenously)	fluorescence of kidney tumors under NIRF imaging ([6]; patients, ICG intravenously, ~10 cc (2.5 mg/ml), against normal kidney parenchyma)	fluorescence of benign cysts under NIRF imaging ([6]; patients, ICG intravenously, compared to normal parenchyma)
–	–	N=C(N)c1ccc(/C=C/c2ccc(C(=N)N)cc2O)cc1 [Fluorogold]	low evidence of neuronal toxicity	without evidence of neuronal toxicity	–	–	–	–	–	–	–	–	–	–	–	–	–
intense fluorescence	hours to days	CC1(C)C(/C=C/C=C/C=C/C=C2\N(CCCCS(=O)(=O)O)c3ccc4ccccc4c3C2(C)C)=[N+](CCCCS(=O)(=O)[O-])c2ccc3ccccc3c21 [ICG, indocyanine green]	–	–	not metabolized in the body	excreted exclusively by the liver	not reabsorbed from the intestine and does not undergo enterohepatic recirculation	remains intravascular	differences in the dynamic optical signals among normal brain, low-grade astrocytomas, and malignant astrocytomas	differences between adjacent normal tissue and remaining tumor tissue	No hypersensitivity reactions or effects of the dye on post-operative hepatorenal function were observed	No hypersensitivity reactions	negative	hypo- or non-fluorescent; also recorded: NIRF characteristics of renal cell carcinoma	fluoresced brightly; also recorded: brightly fluorescent	non-fluorescing “black” or hypofluorescent “gray” areas; also recorded: hypo- or non-fluorescent areas; also recorded: hypo-fluorescent or non-fluorescent areas	even more fluorescent than did normal tissue; also recorded: increased fluorescence compared to the normal parenchyma

From USRE45916E1, “Intraoperative imaging of renal cortical tumors and cysts” (University of Rochester, priority 2006, dated 2016)
